The text below walks through data of ChEMBL document CHEMBL4725300, “Structure optimization of positive allosteric modulators of GABA receptors led to the unexpected discovery of antagonists/potential negative allosteric modulators” (Bioorg Med Chem Lett, 2020).

Holding throughout (assay type): cell membranes
The species named for assay [1] is Rattus norvegicus. Briefly: Negative allosteric modulation of GABAB receptor in Sprague-Dawley rat brain cortex membrane assessed as decrease in [35S]GTPgammaS binding at 2.5 uM incubated for 30 mins relative to control. The arrangement: scale not given: the % may be the effect or the level left. The following applies: Cerebral cortex, filed as negative allosteric modulator. (GTPγS resists hydrolysis and so accumulates on activated G proteins.)

Assay [2] is filed under the species Rattus norvegicus. Briefly: Negative allosteric modulation of GABAB receptor in Sprague-Dawley rat brain cortex membrane assessed as decrease in [35S]GTPgammaS binding at 25 uM incubated for 30 mins relative to control. The arrangement: scale not given: the % may be the effect or the level left. To be noted: Cerebral cortex, filed as negative allosteric modulator.

The species entered for assay [3] is Rattus norvegicus. Briefly: Antagonist activity at GABAB receptor in Sprague-Dawley rat brain cortex membrane assessed as decrease in 10 uM GABA-stimulated [35S]GTPgammaS binding at 25 uM incubated for 30 mins relative to GABA. The arrangement: scale not given: the % may be the effect or the level left. To be noted: Cerebral cortex, filed as antagonist.
The species entered for assay [4] is Rattus norvegicus. Briefly: Negative allosteric modulation of GABAB receptor in Sprague-Dawley rat brain cortex membrane assessed as decrease in [35S]GTPgammaS binding for 30 mins. To be noted: Cerebral cortex, filed as negative allosteric modulator.
Assay [5] is filed under the species Rattus norvegicus. Briefly: Agonist activity at GABAB receptor in Sprague-Dawley rat brain cortex membrane assessed as decrease in 10 uM GABA-stimulated [35S]GTPgammaS binding at 2.5 uM incubated for 30 mins. The arrangement: scale not given: the % may be the effect or the level left. The following applies: Cerebral cortex, filed as agonist.
The species named for assay [6] is Rattus norvegicus. Briefly: Antagonist activity at GABAB receptor in Sprague-Dawley rat brain cortex membrane assessed as decrease in 10 uM GABA-stimulated [35S]GTPgammaS binding at 2.5 uM incubated for 30 mins relative to GABA. The arrangement: scale not given: the % may be the effect or the level left. The following applies: Cerebral cortex, filed as antagonist.

For assay [7], the species on record is Rattus norvegicus. Briefly: Antagonist activity at GABAB receptor in Sprague-Dawley rat brain cortex membrane assessed as decrease in 10 uM GABA-stimulated [35S]GTPgammaS binding incubated for 30 mins. The following applies: Cerebral cortex, filed as antagonist.
For assay [8], the species on record is Rattus norvegicus. Briefly: Agonist activity at GABAB receptor in Sprague-Dawley rat brain cortex membrane assessed as decrease in 10 uM GABA-stimulated [35S]GTPgammaS binding at 25 uM incubated for 30 mins. The arrangement: scale not given: the % may be the effect or the level left. To be noted: Cerebral cortex, filed as agonist.

Structures are written as SMILES.

As for `CC(C)c1c(O)c2cc(C(C)(C)C)ccc2n(CC(C)(C)C)c1=O`, the Activity in the assay filed under Rattus norvegicus [1] is 2%; in the assay listed under Rattus norvegicus [2], 22.7%; in the assay filed under Rattus norvegicus [3] it was 6.3%; in the assay filed under Rattus norvegicus [4], “Dose-dependent effect”; in the assay filed under Rattus norvegicus [5] it was 1.7%.
Regarding `Cn1c(Sc2ccc(Cl)cc2)nc(-c2ccc(C(C)(C)C)cc2)cc1=O`, the Activity in the assay listed under Rattus norvegicus [1] was 4%; in the assay filed under Rattus norvegicus [2], 9.7%; in the assay filed under Rattus norvegicus [6], 8.2%; in the assay filed under Rattus norvegicus [3], 3.1%; in the assay listed under Rattus norvegicus [4] it was “Dose-dependent effect”.
The matching figures for `O=c1cc(-c2ccccc2)nc(Sc2ccc(Cl)cc2)[nH]1`: 8.7%, 14.7%, 4.9%, 7.4% and “Dose-dependent effect”.
Regarding `CCOC(=O)c1cnc(-n2nc(C)cc2C)nc1NC1CCCC1`, the Activity in the assay filed under Rattus norvegicus [1] was 18.3%; in the assay filed under Rattus norvegicus [2], 44.7%; in the assay filed under Rattus norvegicus [6], 14.4%; in the assay listed under Rattus norvegicus [3], 40.8%; in the assay filed under Rattus norvegicus [7] it was “Dose-dependent effect”; in the assay listed under Rattus norvegicus [4], “Dose-dependent effect”.
Regarding `CCCn1c(=O)c(C)c(O)c2cc(OC)ccc21`, the Activity is 5% in the assay listed under Rattus norvegicus [1]; 10.5% in the assay filed under Rattus norvegicus [2]; 4.3% in the assay filed under Rattus norvegicus [6]; 7.4% in the assay listed under Rattus norvegicus [3]; “Dose-dependent effect” in the assay listed under Rattus norvegicus [4].
`Cc1c(O)c2cc(C(C)(C)C)ccc2n(CC(C)C)c1=O`: the Activity in the assay filed under Rattus norvegicus [1] is 13.5%; in the assay listed under Rattus norvegicus [2], 32.5%; in the assay listed under Rattus norvegicus [6] it was 8.4%; in the assay filed under Rattus norvegicus [3], 23.6%; in the assay listed under Rattus norvegicus [7], “Dose-dependent effect”; in the assay listed under Rattus norvegicus [4], “Dose-dependent effect”.
As for `CCOC(=O)c1cnc(SC)nc1NC1CCCC1`, the Activity is 25% in the assay listed under Rattus norvegicus [1]; 29.3% in the assay filed under Rattus norvegicus [2]; 10.3% in the assay filed under Rattus norvegicus [6]; 5.7% in the assay filed under Rattus norvegicus [3]; “Dose-dependent effect” in the assay listed under Rattus norvegicus [4].
As to `Cn1c(Sc2ccc(Cl)cc2)nc(-c2ccccc2)cc1=O`, the Activity in the assay filed under Rattus norvegicus [1] is 12.2%; in the assay listed under Rattus norvegicus [2] it was 34.7%; in the assay listed under Rattus norvegicus [6] it was 10.9%; in the assay filed under Rattus norvegicus [3] it was 34.1%; in the assay filed under Rattus norvegicus [7] it was “Dose-dependent effect”; in the assay filed under Rattus norvegicus [4], “Dose-dependent effect”.
For the compound `O=c1cc(-c2ccccc2)nc(Sc2ccccc2)[nH]1`, the Activity is 3.3% in the assay listed under Rattus norvegicus [1]; 7.3% in the assay listed under Rattus norvegicus [2]; 4.7% in the assay filed under Rattus norvegicus [6]; 6.1% in the assay listed under Rattus norvegicus [3]; “Dose-dependent effect” in the assay listed under Rattus norvegicus [4].
For `CSc1ncc(-c2nnc(C)o2)c(NC2CCCC2)n1`, in that order: 25.3%, 37.7%, 17.1%, 19% and “Dose-dependent effect”.
Turning to `CC(C)Cn1c(=O)c(C(C)C)c(O)c2cc(C(C)(C)C)ccc21`, the Activity was 23% in the assay filed under Rattus norvegicus [1]; 50.7% in the assay listed under Rattus norvegicus [2]; 15.3% in the assay filed under Rattus norvegicus [6]; 36.2% in the assay listed under Rattus norvegicus [3]; “Dose-dependent effect” in the assay listed under Rattus norvegicus [7]; “Dose-dependent effect” in the assay listed under Rattus norvegicus [4].
On to `CC(C)Cn1c(=O)c(C(C)C)c(O)c2cc(C(C)C)ccc21`, for which the Activity in the assay filed under Rattus norvegicus [1] is 8.7%; in the assay filed under Rattus norvegicus [2], 41.5%; in the assay filed under Rattus norvegicus [6], 13.5%; in the assay filed under Rattus norvegicus [3] it was 41.5%; in the assay filed under Rattus norvegicus [7], “Dose-dependent effect”; in the assay filed under Rattus norvegicus [4], “Dose-dependent effect”.
On to `CSc1ncc(-c2nc(C)no2)c(NC2CCCC2)n1`, for which the Activity was 19% in the assay filed under Rattus norvegicus [1]; 33.3% in the assay listed under Rattus norvegicus [2]; 10.3% in the assay filed under Rattus norvegicus [6]; 19% in the assay listed under Rattus norvegicus [3]; “Dose-dependent effect” in the assay listed under Rattus norvegicus [7]; “Dose-dependent effect” in the assay filed under Rattus norvegicus [4].
`Cc1c(O)nc(-c2ccccc2)n(Cc2ccccc2)c1=O`: the Activity in the assay filed under Rattus norvegicus [1] turned out to be 3.3%; in the assay listed under Rattus norvegicus [2] it was 8.3%; in the assay listed under Rattus norvegicus [6] it was 5.7%; in the assay filed under Rattus norvegicus [3] it was 6.2%.
In the case of `CC(C)c1ccc2c(c1)c(O)c(C(C)C)c(=O)n2CC(C)(C)C`, the Activity is 3.2% in the assay filed under Rattus norvegicus [1]; 13.8% in the assay filed under Rattus norvegicus [2]; 2% in the assay filed under Rattus norvegicus [6]; “Dose-dependent effect” in the assay filed under Rattus norvegicus [4]; 2.6% in the assay filed under Rattus norvegicus [8].
With `O=c1cc(O)nc(-c2ccccc2)n1Cc1ccccc1`, the Activity in the assay listed under Rattus norvegicus [1] is 2.4%; in the assay listed under Rattus norvegicus [2], 14%; in the assay listed under Rattus norvegicus [6], 0.9%; in the assay listed under Rattus norvegicus [3], 12.4%.
For the compound `Cn1c(Sc2ccccc2)nc(-c2ccccc2)cc1=O`, the Activity in the assay filed under Rattus norvegicus [1] was 4.7%; in the assay listed under Rattus norvegicus [2], 9.7%; in the assay filed under Rattus norvegicus [6] it was 1.6%; in the assay filed under Rattus norvegicus [3], 4.7%; in the assay listed under Rattus norvegicus [4], “Dose-dependent effect”.
Regarding `CC(C)c1c(O)nc(-c2ccccc2)n(Cc2ccccc2)c1=O`, the Activity in the assay filed under Rattus norvegicus [1] stood at 2.3%; in the assay filed under Rattus norvegicus [2] it was 13%; in the assay filed under Rattus norvegicus [6], 5.2%; in the assay listed under Rattus norvegicus [3] it was 8%.
On to `CCCCCn1c(=O)c(C(C)C)c(O)c2cc(C(C)C)ccc21`, for which the Activity is 9% in the assay filed under Rattus norvegicus [1]; 37.7% in the assay filed under Rattus norvegicus [2]; 7% in the assay filed under Rattus norvegicus [6]; 24.4% in the assay listed under Rattus norvegicus [3]; “Dose-dependent effect” in the assay listed under Rattus norvegicus [7]; “Dose-dependent effect” in the assay filed under Rattus norvegicus [4].
